This passage reports IC50 results from PubChem BioAssay AID488998 (The Scripps Research Institute Molecular Screening Center, 2010).

Calls of active or inactive are those of the source.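 Rule for the calls: active = IC50 at or below 10 µM; inactive = IC50 above 10 µM.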 Bounds are passed on as bounds.

This assay addresses Lytic switch protein BZLF1 (Epstein-Barr virus (strain B95-8)) (UniProt P03206). Kind of assay: EBV ZTA inhibitors, concentration series – biochemical, fluorescence polarization, dose response, round 0, counter-screen for EBNA-1 inhibitor project, late-stage follow-up (AID 488998). As to conditions: purified Zta–Cy5 ZRE DNA binding. On the technique in general: Polarisation of emitted light reports the rotation of a fluorescent probe.

Chain of Lytic switch protein BZLF1 (Epstein-Barr virus (strain B95-8)) (P03206 whole entry, looked up): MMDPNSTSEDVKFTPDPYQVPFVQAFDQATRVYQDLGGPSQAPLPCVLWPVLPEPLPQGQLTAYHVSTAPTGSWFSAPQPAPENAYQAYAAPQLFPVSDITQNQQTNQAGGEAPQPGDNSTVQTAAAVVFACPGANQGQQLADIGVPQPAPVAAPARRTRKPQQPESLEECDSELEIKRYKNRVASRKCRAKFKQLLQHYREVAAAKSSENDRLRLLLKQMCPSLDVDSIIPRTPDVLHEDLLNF

As for `Cc1ccc(C(=O)Nc2nc3cc(F)ccc3s2)cc1C`, the IC50 is > 111 µM (inactive).

For `COc1ccc(C(=O)Nc2nc3ccc(S(C)(=O)=O)cc3s2)cc1`, the IC50 is > 111 µM (inactive).

As for `CS(=O)(=O)c1ccc2nc(NC(=O)c3ccccc3F)sc2c1`, the IC50 is > 111 µM (inactive).

As to `CS(=O)(=O)c1ccc2nc(NC(=O)c3ccccc3Cl)sc2c1`, the IC50 is > 111 µM (inactive).

Regarding `Cc1ccc(-n2nnnc2SCC(=O)c2cc(C)n(CC3CCCO3)c2C)cc1` (stereo not given), the IC50 was > 111 µM (inactive).

Consider `Cc1cc(C(=O)CSc2nnnn2-c2ccccc2)c(C)n1Cc1cccs1`, for which the IC50 was > 111 µM (inactive).

As for `Cc1ccc(C(=O)Nc2nc3ccc(S(C)(=O)=O)cc3s2)cc1`, the IC50 is > 111 µM (inactive).

For the molecule `Cc1ccc(C(=O)Nc2nc3cc(Br)ccc3s2)cc1C`, the IC50 was > 111 µM (inactive).

`Cc1cccc(C(=O)Nc2nc3ccc(S(C)(=O)=O)cc3s2)c1`: the IC50 is > 111 µM (inactive).

`Cc1cc(C(=O)CSc2nnnn2C)c(C)n1CC1CCCO1` (stereo not given): the IC50 was > 111 µM (inactive).

For the molecule `COc1ccc2nc(NC(=O)c3ccc(C)c(C)c3)sc2c1`, the IC50 is > 111 µM (inactive).

In the case of `Cc1ccc(C(=O)Nc2nc3ccc(Br)cc3s2)cc1C`, the IC50 was > 111 µM (inactive).

Consider `CCn1c(C)cc(C(=O)CSc2nnnn2-c2ccccc2)c1C`, for which the IC50 was > 111 µM (inactive).

Consider `COc1ccc2sc(NC(=O)c3ccc(C)c(C)c3)nc2c1`, for which the IC50 was > 111 µM (inactive).

On to `Cc1cc(C(=O)CSc2nnnn2-c2ccc(Cl)cc2)c(C)n1CC1CCCO1` (stereo not given), for which the IC50 is > 111 µM (inactive).

Regarding `COc1ccc(-n2nnnc2SCC(=O)c2cc(C)n(CC3CCCO3)c2C)cc1` (stereo not given), the IC50 was > 111 µM (inactive).

For `CS(=O)(=O)c1ccc2nc(NC(=O)c3cccc(F)c3)sc2c1`, the IC50 was > 111 µM (inactive).

As to `Cc1ccccc1C(=O)Nc1nc2ccc(S(C)(=O)=O)cc2s1`, the IC50 was > 111 µM (inactive).

In the case of `Cc1ccccc1-n1nnnc1SCC(=O)c1cc(C)n(CC2CCCO2)c1C` (stereo not given), the IC50 is > 111 µM (inactive).

Take `COCCn1c(C)cc(C(=O)CSc2nnnn2-c2ccccc2)c1C`: the IC50 was > 111 µM (inactive).

In the case of `Cc1cc(C(=O)CSc2nnnn2C2CC2)c(C)n1CC1CCCO1` (stereo not given), the IC50 is > 111 µM (inactive).

For the molecule `COc1cccc(C(=O)Nc2nc3ccc(S(C)(=O)=O)cc3s2)c1`, the IC50 is > 111 µM (inactive).

Turning to `CS(=O)(=O)c1ccc2nc(NC(=O)c3cccc(Cl)c3)sc2c1`, the IC50 was > 111 µM (inactive).

Take `Cc1cc(C(=O)CSc2nnnn2-c2cccc(F)c2)c(C)n1CC1CCCO1` (stereo not given): the IC50 is > 111 µM (inactive).

Take `CS(=O)(=O)c1ccc2nc(NC(=O)c3ccc(Cl)cc3)sc2c1`: the IC50 is > 111 µM (inactive).

With `COc1cccc2sc(NC(=O)c3ccc(C)c(C)c3)nc12`, the IC50 is > 111 µM (inactive).

For `COc1ccccc1C(=O)Nc1nc2ccc(S(C)(=O)=O)cc2s1`, the IC50 was > 111 µM (inactive).

As to `O=C(CSc1nnnn1-c1ccccc1)c1ccn(CC2CCCO2)c1` (stereo not given), the IC50 was > 111 µM (inactive).

Take `Cc1cc(C(=O)CSc2nnnn2-c2ccccc2)c(C)n1C`: the IC50 is > 111 µM (inactive).

With `Cc1cccc(-n2nnnc2SCC(=O)c2cc(C)n(CC3CCCO3)c2C)c1` (stereo not given), the IC50 was > 111 µM (inactive).

One may read the IC50 as the midpoint of a concentration-inhibition curve.
